Converted amounts (≈) assume the structure as drawn.
What was measured:
Pseudomonas = conditions: known penicillins and N-acyl ampicillins; cited from earlier work
[1] = system: gram-positive and gram-negative bacteria; conditions: known penicillins and N-acyl ampicillins; cited from earlier work
Escherichia coli NIHJ = assay: minimal inhibitory concentration, agar dilution method; type: cell-based
From the text: (§1) When determined according to the agar dilution method, the penicillins (I) afford the minimal inhibitory concentrations against test microorganisms as shown in Table 2.

[2] = system: Staphylococcus aureus 209P; assay: as above; type: cell-based
From the text: as §1

[3] = system: Pseudomonas aeruginosa 104; assay: as above; type: cell-based
From the text: as §1

Proteus miravilis GN2425 = assay: as above; type: cell-based
Proteus vulgaris HV19 = assay: as above; type: cell-based
[4] = system: Klebsiella pneumoniae PCI602; assay: as above; type: cell-based
From the text: as §1

MIC (Escherichia coli NIHJ) [µg/mL]	MIC [2] [µg/mL]	MIC [3] [µg/mL]	MIC (Proteus miravilis GN2425) [µg/mL]	MIC (Proteus vulgaris HV19) [µg/mL]	Molecule	antimicrobial activity against Pseudomonas (Pseudomonas)	growth inhibition / antimicrobial activity against gram-positive and gram-negative bacteria [1]	MIC [4] [µg/mL]
–	–	–	–	–	CC1(C)S[C@@H]2[C@H](NC(=O)C3(N)CCCCC3)C(=O)N2[C@H]1C(=O)O [Cyclacillin, 6-(1-amino-cyclohexane)carboxamidopenicillanic acid]	do not exert any appreciable antimicrobial activity against Pseudomonas	inhibit the growth of various gram-positive and gram-negative bacteria	–
–	–	–	–	–	CC1(C)S[C@@H]2[C@H](NC(=O)[C@H](N)C3=CCC=CC3)C(=O)N2[C@H]1C(=O)O [Epicillin, 6-[α-amino-2-(1,4-hexadienylacetamido)]penicillanic acid]	do not exert any appreciable antimicrobial activity against Pseudomonas	inhibit the growth of various gram-positive and gram-negative bacteria	–
–	–	–	–	–	6-(α-amino-thienylacetamido)penicillanic acid	do not exert any appreciable antimicrobial activity against Pseudomonas	inhibit the growth of various gram-positive and gram-negative bacteria	–
3.13 (≈ 5.13 µM)	1.56 (≈ 2.56 µM)	3.13 (≈ 5.13 µM)	3.13 (≈ 5.13 µM)	0.05 (≈ 0.082 µM)	CCOC(=O)Oc1ccc([C@@H](NC(=O)c2cnc3cccnc3c2O)C(=O)N[C@@H]2C(=O)N3[C@@H]2SC(C)(C)[C@@H]3C(=O)O)cc1 [Example 9, D-α-(4-hydroxy-1,5-naphthyridine-3-carboxamido)-p-ethoxycarbonyloxybenzylpenicillin]	–	–	–
12.5 (≈ 20.1 µM)	1.56 (≈ 2.51 µM)	6.25 (≈ 10 µM)	6.25 (≈ 10 µM)	0.2 (≈ 0.321 µM)	CC1(C)S[C@@H]2[C@H](NC(=O)C(NC(=O)c3cnc4cccnc4c3S)c3cc(Cl)c(O)c(Cl)c3)C(=O)N2[C@H]1C(=O)O (stereo partly drawn) [Example 40]	–	–	–
6.25 (≈ 11.6 µM)	0.78 (≈ 1.45 µM)	6.25 (≈ 11.6 µM)	3.13 (≈ 5.83 µM)	0.2 (≈ 0.373 µM)	CC1(C)S[C@@H]2[C@H](NC(=O)[C@H](NC(=O)c3cnc4ccccc4c3O)c3cccc(O)c3)C(=O)N2[C@H]1C(=O)O [Example 13]	–	–	–
3.13 (≈ 5.23 µM)	0.78 (≈ 1.3 µM)	3.13 (≈ 5.23 µM)	3.13 (≈ 5.23 µM)	0.05 (≈ 0.0835 µM)	COc1nc(OC)c2c(O)c(C(=O)N[C@@H](C(=O)N[C@@H]3C(=O)N4[C@@H]3SC(C)(C)[C@@H]4C(=O)O)c3ccc(O)cc3)cnc2n1 [Example 28]	–	–	–
–	–	–	–	–	6-(α-amino-isothiazolylacetamido)penicillanic acid	do not exert any appreciable antimicrobial activity against Pseudomonas	inhibit the growth of various gram-positive and gram-negative bacteria	–
1.56 (≈ 2.82 µM)	0.78 (≈ 1.41 µM)	3.13 (≈ 5.65 µM)	1.56 (≈ 2.82 µM)	0.05 (≈ 0.0903 µM)	CC1(C)S[C@@H]2[C@H](NC(=O)[C@H](NC(=O)c3cnc4ccc(O)nc4c3O)c3ccc(O)cc3)C(=O)N2[C@H]1C(=O)O [Example 22]	–	–	–

Molecule	MIC (Escherichia coli NIHJ) [µg/mL]	MIC [2] [µg/mL]	MIC [3] [µg/mL]	MIC (Proteus miravilis GN2425) [µg/mL]	MIC (Proteus vulgaris HV19) [µg/mL]	antimicrobial activity against Pseudomonas (Pseudomonas)	growth inhibition / antimicrobial activity against gram-positive and gram-negative bacteria [1]	MIC [4] [µg/mL]
CC1(C)S[C@@H]2C(NC(=O)C(N)c3ccccc3)C(=O)N2[C@H]1C(=O)O (stereo partly drawn) [Ampicillin, 6-(α-amino-phenylacetamido)penicillanic acid, reference compound]	6.26 (≈ 17.9 µM)	0.1 (≈ 0.286 µM)	–	–	–	–	inhibit the growth of various gram-positive and gram-negative bacteria	–
CC1(C)S[C@@H]2C(NC(=O)C(N)c3ccc(O)cc3)C(=O)N2[C@H]1C(=O)O (stereo partly drawn) [Amoxycillin, 6-(α-amino-p-hydroxyphenylacetamido)penicillanic acid, reference compound]	12.5 (≈ 34.2 µM)	0.2 (≈ 0.547 µM)	> 200	3.13 (≈ 8.57 µM)	12.5 (≈ 34.2 µM)	do not exert any appreciable antimicrobial activity against Pseudomonas	inhibit the growth of various gram-positive and gram-negative bacteria	–
CC1(C)S[C@@H]2[C@H](NC(=O)C(NC(=O)c3ccccn3)c3ccccc3)C(=O)N2[C@H]1C(=O)O (stereo partly drawn) [R, reference compound]	100 (≈ 220 µM)	0.78 (≈ 1.72 µM)	50 (≈ 110 µM)	50 (≈ 110 µM)	–	–	–	50 (≈ 110 µM)

Source: patent publication US3954733A, “Naphthyridine-3-carboxamido-benzylpenicillins and salts thereof” (Sumitomo Chemical Company, Limited, priority 1973, dated 1976)
